We go through one compound from PMC7917093, “Multiomics-based dissection of citrus flavonoid metabolism using a Citrus reticulata × Poncirus trifoliata population” (Horticulture Research, 2021).

For test [1], the system named is T1, CitF3H (C. reticulata allele).
T1 construct: gene F3H
The test is described as follows: LC-MS product assay, Michaelis-Menten fit. The test is classed as biochemical, Citrus reticulata. To be noted: 0-1000 μM naringenin; 2-oxoglutarate 10 mM, FeSO4 0.25 mM, ascorbate 10 mM; Tris-HCl pH 8.5; 35 °C.

In test [2] the test system is T2, CitF3H (P. trifoliata allele).
T2 construct: gene F3H; natural allele with five amino acid differences and one indel versus C. reticulata
In words: LC-MS product assay, Michaelis-Menten fit. The test is classed as biochemical, Citrus trifoliata. To be noted: 0-1000 μM naringenin; 2-oxoglutarate 10 mM, FeSO4 0.25 mM, ascorbate 10 mM; Tris-HCl pH 8.5; 35 °C.

Regarding `O=C1C[C@@H](c2ccc(O)cc2)Oc2cc(O)cc(O)c21` [naringenin], the Km (usually the concentration of substrate that gives half-maximal velocity) in test [1] amounted to 121 µM; in test [2] it was 7.61 µM.
